This is an account of results in patent publication EP0538248B1, “TETRAHYDROISOQUINOLINYLCARBAMATES OF 1,2,3,3A,8,8A-HEXAHYDRO-1,3A,8-TRIMETHYLPYRROLO [2,3-B]INDOLE” (priority 1990, dated 1992).

Read-outs that look alike come from different tables or passages of the source.

Data set [1] is described as follows: Stability on incubation with human plasma at 37°C. The conditions noted are these: after 4 hours. The format is in vitro ADME.
Data set [2] concerns anesthetized dog. Nature of the data set: Acute cardiovascular hemodynamic evaluation in the anesthetized dog. The conditions noted are these: for CO: cardiac output; for HR: heart rate; for LVEDP: left ventricular end-diastolic pressure; for MAP: mean arterial blood pressure; for RAP: right atrial pressure. The procedure:
(Details of test methods used for determining acute cardiovascular hemodynamic effects are presented following the Conclusion section).
(§1) Beagles of either sex are anesthetized with sodium thiopental 15 mg/kg + sodium barbital 200 mg/kg + 60 mg of sodium pentobarbital i.v. The trachea is intubated with a cuffed endotracheal tube and connected to a Harvard Respirator Pump set at 20 ml/stroke and 10 strokes/minute. The right femoral artery and vein are exposed and cannulated with polyethylene tubing for measurement of arterial blood pressure and i.v. administration of drugs, respectively. The duration of these experiments is two hours postdrug when drug is administered i.v. and three hours when administered i.d.
(§2) The arterial cannula is connected to a Statham P23Gb transducer. Left ventricular cardiac catheterization is accomplished by introducing a Millar microtip pressure transducer into the left carotid artery and advancing it to the left ventricle. The cannula is connected to a Millar TC-100 transducer control unit which is connected to a Beckman voltage/pressure pulse coupler. Ventricular pressure and its first derivative dP/dt are measured simultaneously by wiring the signal output from the left ventricular pressure tracing into a differentiator. […] The proximal lumen of this catheter is in the right atrium when the distal lumen and thermistor have been properly placed in the pulmonary artery. The signal outputs from the proximal and distal sites are connected to Statham P23BB transducers to measure right atrial pressure (RAP) and pulmonary artery pressure (PAP). Cardiac output is determined by injecting 5 ml of iced 5% dextrose in water into the proximal site (right atrium) and then measuring the temperature change in the pulmonary artery. Using the Stewart-Hamilton equation, the cardiac output can be determined by integrating the area under the thermodilution curve with an Edwards Cardiac Output Computer (model 9520). Heart rate is determined with a Beckman Cardiotach which sums the pressure waves from the pulse pressure curve of the arterial pressure. Lead II EKG is recorded. […] The measurement of these parameters provides information so that the following may be either measured directly or calculated: • 1. Mean Arterial Blood Pressure - MAP (mmHg) • 2. Heart Rate - HR • 3. Cardiac Output - CO (1/minute) • 4. Total Peripheral Resistance - TPR • 5. Cardiac Index - CI (CO/m^2) • 6. Stroke Volume - SV (ml/beat) • 7. Stroke Work - SW (gm-m/beat) • 8. Central Venous Pressure - CVP measured as right atrial pressure (RAP) mmHg or cmH2O. • 9. Left Ventricular End Diastolic Pressure - LVEDP (mmHg) • 10. Rate of Rise of Ventricular Pressure - dP/dt/Pmax This parameter is a better estimate of the contractile state of the myocardium that dP/ dt alone since the former is relatively independent of the loading conditions of the heart (sec^-1). • 11. Plumonary Artery Pressure - PAP (mmHg) • 12. Electrocardiogram - EKG

Data set [3] deals with anesthetized dogs. As to the kind of experiment: Cardiovascular effects in anesthetized dogs during combined blockade of alpha and beta adrenergic receptors. The procedure: as §1
as §2, with “The signal outputs from the proximal and distal sites are connected to Statham P23BB transducers to measure right atrial pressure (RAP) and pulmonary artery pressure (PAP).” left out, “Mean Arterial Blood Pressure - MAP (mmHg) • 2. Heart Rate - HR • 3. Cardiac Output - CO (1/minute) • 4. Total Peripheral Resistance - TPR • 5. Cardiac Index - CI (CO/m^2) • 6. Stroke Volume - SV (ml/beat) • 7. Stroke Work - SW (gm-m/beat) • 8.” left out, “Left Ventricular End Diastolic Pressure - LVEDP (mmHg) • 10. Rate of Rise of Ventricular Pressure - dP/dt/Pmax This parameter is a better estimate of the contractile state of the myocardium that dP/ dt alone since the former is relatively independent of the loading conditions of the heart (sec^-1). • 11. Plumonary Artery Pressure - PAP (mmHg) • 12. Electrocardiogram - EKG” left out

A short description of data set [4]: Oral bioavailability studies (absorption, brain:plasma partition).
Data set [5] concerns the target T1, rat brain AChE (Rattus norvegicus, UniProt P37136).
T1 sequence (P37136 32-614): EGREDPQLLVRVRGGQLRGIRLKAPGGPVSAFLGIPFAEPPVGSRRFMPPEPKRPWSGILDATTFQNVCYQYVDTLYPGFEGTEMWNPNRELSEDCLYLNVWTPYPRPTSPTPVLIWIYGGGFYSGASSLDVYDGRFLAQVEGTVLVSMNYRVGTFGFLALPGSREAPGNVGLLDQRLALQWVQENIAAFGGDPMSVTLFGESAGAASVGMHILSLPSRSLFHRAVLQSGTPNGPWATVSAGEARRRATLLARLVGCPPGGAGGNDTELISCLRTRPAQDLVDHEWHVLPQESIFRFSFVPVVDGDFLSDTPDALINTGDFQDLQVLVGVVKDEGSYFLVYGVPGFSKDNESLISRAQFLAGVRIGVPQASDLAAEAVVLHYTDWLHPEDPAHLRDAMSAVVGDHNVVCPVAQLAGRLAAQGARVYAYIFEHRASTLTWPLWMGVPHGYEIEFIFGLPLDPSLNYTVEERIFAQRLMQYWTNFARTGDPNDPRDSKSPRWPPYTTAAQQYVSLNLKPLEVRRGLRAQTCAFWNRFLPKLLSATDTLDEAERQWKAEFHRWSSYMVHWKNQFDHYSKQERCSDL
As to the method:
The method described below was used in this invention for assaying cholinesterase activity. This is a modification of the method of Ellman et al., Biochem. Pharmacol. 7, 98 (1961).
• A. Reagents - • 1. 0.05 M Phosphate buffer, pH 7.2 • (a) 6.85 g NaH2PO4•H2O/100 ml distilled H2O • (b) 13.40 g Na2HPO4•7H2O/100 ml distilled H2O • (c) add (a) to (b) until pH reaches 7.2 • (d) Dilute 1:10 • 2. Substrate in buffer • (a) 198 mg acetylthiocholine chloride (10 mM) • (b) q.s to 100 ml with 0.05 M phosphate buffer, pH 7.2 (reagent 1) • 3. DTNB in buffer • (a) 19.8 mg 5,5-dithiobisnitrobenzoic acid (DTNB) (0.5 mM) • (b) q.s. to 100 ml with 0.05 M phosphate buffer, pH 7.2 (reagent 1) • 4. A 2 mM stock solution of the test drug is made up in a suitable solvent and q.s. to volume with 0.5 mM DTNB (reagent 3). Drugs are serially diluted (1:10) such that the final concentration (in cuvette) is 10^-4 M and screened for activity. If active, IC50 values are determined from the inhibitory activity of subsequent concentrations. • B. Tissue Preparation- Male Wistar rats are decapitated, brains rapidly removed, copora striata disected free, weighed and homogenized in 19 volumes (approximately 7 mg protein/ml) of 0.05 M phosphate buffer, pH 7.2 using a Potter-Elvehjem homogenizer. A 25 microliter aliquot of the homogenate is added to 1.0 milliter vehicle or various concentrations of the test drug and preincubated for 10 minutes at 37°C. • C. Assay- Enzyme activity is measured with the Beckman DU-50 spectrophotometer. This method can be used for IC50 determinations and for measuring kinetic constants. Instruments Settings • Kinetics Soft-Pac Module #598273 (10) • Program #6 Kindata: • Source - Vis • Wavelength - 412 nm • Sipper - none • Cuvettes - 2 ml cuvettes using auto 6-sampler • Blank - 1 for each substrate concentration • Interval time - 15 seconds (15 or 30 seconds for kinetics) • Total time - 5 minutes (5 or 10 minutes for kinetics) • Plot - yes • Span - autoscale • Slope - increasing • Results - yes (gives slope) • Factor - 1
Reagents are added to the blank and sample cuvettes as follows: Blank: 0.8 ml Phosphate Buffer/DTNB 0.8 ml Buffer/Substrate Control: 0.8 ml Phosphate Buffer/DTNB/Enzyme 0.8 ml Phosphate Buffer/Substrate Drug: 0.8 ml Phosphate Buffer/DTNB/Drug/ Enzyme 0.8 ml Phosphate Buffer/Substrate Blank values are determined for each run to control for non-enzymatic hydrolysis of substrate and these values are automatically subtracted by the kindata program available on kinetics soft-pac module. This program also calculates the rate of absorbance change for each cuvette.
Substrate concentration is 10 mM diluted 1:2 in assay yielding final concentration of 5 mM.

Data set [6] concerns [^3H]norepinephrine release. Nature of the data set: [3H]norepinephrine release in vitro. The format is biochemical, Rat. The conditions noted are these: Compound A at 100 µM.
For data set [7], the target named is butyrylcholinesterase (Homo sapiens, UniProt P06276). To be noted: relative to physostigmine.
butyrylcholinesterase, sequence (P06276 29-602): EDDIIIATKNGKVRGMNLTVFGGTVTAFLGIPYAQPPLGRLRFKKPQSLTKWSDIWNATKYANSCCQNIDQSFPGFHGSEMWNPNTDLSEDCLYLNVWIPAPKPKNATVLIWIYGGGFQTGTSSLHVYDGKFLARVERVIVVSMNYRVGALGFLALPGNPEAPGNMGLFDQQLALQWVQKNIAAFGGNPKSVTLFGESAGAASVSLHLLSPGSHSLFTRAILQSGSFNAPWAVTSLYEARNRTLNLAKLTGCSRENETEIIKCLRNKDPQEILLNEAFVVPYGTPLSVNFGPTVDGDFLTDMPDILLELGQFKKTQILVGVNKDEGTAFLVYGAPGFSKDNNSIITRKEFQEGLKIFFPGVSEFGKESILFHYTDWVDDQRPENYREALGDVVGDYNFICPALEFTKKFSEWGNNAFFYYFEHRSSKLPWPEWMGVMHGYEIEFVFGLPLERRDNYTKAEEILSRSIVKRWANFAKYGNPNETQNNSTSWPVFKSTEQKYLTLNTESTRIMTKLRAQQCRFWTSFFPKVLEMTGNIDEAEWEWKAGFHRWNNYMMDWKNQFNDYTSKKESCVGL
[8] abbreviates: 0.01 mg/kg/min. i.v., anesthetized dog.
[9] abbreviates: 0.1 mg/kg/min. i.v., anesthetized dog.
[10] abbreviates: 0.01 mg/kg/min i.v. during alpha and beta receptor blockade.

Regarding `CNC(=O)Oc1ccc2c(c1)[C@]1(C)CCN(C)[C@@H]1N2C` [physostigmine], in data set [1], the “compound remaining after incubation with human plasma” value is “completely destroyed”. The mortality result in data set [2] (0.01 mg/kg/min i.v., intact alpha and beta adrenergic receptors) was “no mortality”. Besides, in data set [2] (setting [8]), the TRP is -34%, the dP/dT was -32%, the CO is given as -23% and the HR is given as -49%. In data set [2] (setting [8]), the LVEDP result was “+5mmHG”, the MAP is on record as -49% and the RAP entry is recorded as “+5mmHG”. Moreover, in data set [2] (setting [9]), the ECG result is on record as “A-V block inc. T wave”, the TRP is given as -48%, the dP/dT is given as -80% and the CO is -79%. For the same compound, in data set [2] (setting [9]), the HR is on record as -82%, the LVEDP result is “+8mmHG”, the MAP is recorded as -78% and the RAP result is “+8mmHG”. Besides, in data set [3] (setting [10]), the “mortality (dogs)” value is recorded as 3 out of 3 and the time to mortality was in the range of 17 to 29 min. Moreover, the “oral absorption / bioavailability” value in data set [4] is on record as “so poorly bioavailable by the oral route that pharmacokinetic data was not available”.
Consider “(3aS-cis)-1,2,3,3a,8,8a-hexahydro-1,3a,8-trimethylpyrrolo[2,3-b]indol-5-ol,(1,2,3,4-tetrahydroisoquinolinyl)carbamate [Compound A]”, for which, in data set [1], the “compound remaining after incubation with human plasma” value is reported as “approximately 70%”. In data set [5] (20 mg/kg for four days in rats), the “accumulation effect on repeated administration” value is reported as “no accumulation effect”. Further, the “inhibition of rat brain AChE ex vivo” value in data set [5] (20 mg/kg, 4 hours after oral administration) is on record as “significantly inhibitied”. In addition, the “inhibition of rat brain AChE ex vivo” value in data set [5] (20 mg/kg, 6 hours after oral administration) was “significantly inhibitied”. Moreover, the “inhibition of rat brain AChE ex vivo” value in data set [5] (20 mg/kg, 24 hours after oral administration) was “not statistically significant”. Moreover, in data set [5] (after oral administration), the “inhibition of rat brain AChE ex vivo” value is listed as “significant inhibition”. Also, the “[^3H]norepinephrine release in vitro” value in data set [6] was “stimulated”. Also, in data set [2] (setting [8]), the TRP was -18%, the dP/dT result is “+37%”, the HR is recorded as -12% and the MAP is recorded as -12%. In addition, in data set [2] (setting [9]), the TRP result is “+61%”, the dP/dT entry is listed as “+38%”, the CO result is given as “+40%” and the HR is given as -13%. The MAP result in data set [2] (setting [9]) is recorded as “+54%”. For the same compound, the “cardiac and hemodynamic effects” value in data set [3] (0.1 mg/kg/min i.v. during alpha and beta adrenergic blockade) is “moderate decreases in blood pressure and cardiac output”. The “potency as an inhibitor of butyrylcholinesterase, times less potent than physostigmine” value in data set [7] is reported as “approximately 34 times”. In addition, the “oral absorption / bioavailability” value in data set [4] was “rapidly absorbed orally”.
